Laboratory results published in ChEMBL document CHEMBL4680348, “1,2,4-Thiadiazole acyclic nucleoside phosphonates as inhibitors of cysteine dependent enzymes cathepsin K and GSK-3β” (Bioorg Med Chem, 2021).

Experiments:
[1] = test system: HepG2; assay: Cytotoxicity against human HepG2 cells assessed as cell viability at 100 uM incubated for 72 hrs by CellTiter-Glo luminescence based assay; assay type: functional; details: read-out: Activity
[2] = test system: HL-60; assay: Cytotoxicity against human HL-60 cells assessed as cell viability at 10 uM incubated for 72 hrs by CellTiter-Glo luminescence based assay; assay type: functional; details: read-out: Activity
[3] = molecular target: T1, Cathepsin K (Homo sapiens, UniProt P43235); assay: Inhibition of recombinant human Cathepsin K expressed in Pichia pastoris X-33 using Z-Gly-Pro-Arg-AMC as substrate preincubated for 10 mins followed by substrate addition measured after 30 mins by fluorescence based microplate reader assay
T1 sequence (P43235 whole entry): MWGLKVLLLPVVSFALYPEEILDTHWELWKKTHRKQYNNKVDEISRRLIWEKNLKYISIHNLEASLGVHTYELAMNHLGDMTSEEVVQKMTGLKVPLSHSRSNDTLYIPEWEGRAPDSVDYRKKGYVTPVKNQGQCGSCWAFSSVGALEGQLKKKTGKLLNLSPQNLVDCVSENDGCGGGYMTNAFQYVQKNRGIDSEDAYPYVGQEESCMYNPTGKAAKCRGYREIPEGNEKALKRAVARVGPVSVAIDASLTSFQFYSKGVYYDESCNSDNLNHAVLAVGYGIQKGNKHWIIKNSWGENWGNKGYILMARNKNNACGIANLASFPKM

[4] = test system: HepG2; assay: Cytotoxicity against human HepG2 cells assessed as cell viability at 10 uM incubated for 72 hrs by CellTiter-Glo luminescence based assay; assay type: functional; details: read-out: Activity
[5] = molecular target: Glycogen synthase kinase-3 beta (Homo sapiens, UniProt P49841); assay: Inhibition of human recombinant GSK3beta using GSK3 peptide as substrate preincubated for 15 mins followed by ATP addition and measured after 90 mins by ADP-Glo kinase assay
Chain of Glycogen synthase kinase-3 beta (P49841 whole entry): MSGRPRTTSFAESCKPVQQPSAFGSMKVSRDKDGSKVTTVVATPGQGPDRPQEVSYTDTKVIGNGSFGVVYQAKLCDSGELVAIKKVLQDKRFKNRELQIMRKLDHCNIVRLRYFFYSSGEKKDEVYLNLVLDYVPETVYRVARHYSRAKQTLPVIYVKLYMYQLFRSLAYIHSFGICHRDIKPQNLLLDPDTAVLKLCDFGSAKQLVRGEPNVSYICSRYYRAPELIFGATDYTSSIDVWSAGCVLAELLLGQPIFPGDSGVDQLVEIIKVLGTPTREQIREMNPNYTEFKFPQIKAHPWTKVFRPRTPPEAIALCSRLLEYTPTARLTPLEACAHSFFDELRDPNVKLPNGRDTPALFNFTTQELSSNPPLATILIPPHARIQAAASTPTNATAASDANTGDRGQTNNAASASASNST

[6] = Cytotoxicity against human NHDF cells assessed as cell viability at 100 uM incubated for 72 hrs by CellTiter-Glo luminescence based assay; details: read-out: Activity
[7] = test system: CCRF-CEM; assay: Cytotoxicity against human CCRF-CEM cells assessed as cell viability at 100 uM incubated for 72 hrs by CellTiter-Glo luminescence based assay; assay type: functional; details: read-out: Activity
[8] = test system: SH-SY5Y; assay: Cytotoxicity against human SH-SY5Y cells assessed as cell viability at 100 uM incubated for 72 hrs by CellTiter-Glo luminescence based assay; assay type: functional; details: read-out: Activity
[9] = molecular target: T2, Cathepsin K (Homo sapiens) (UniProt P43235); assay: Inhibition of recombinant human Cathepsin K expressed in Pichia pastoris X-33 assessed as residual activity at 10 uM using Z-Gly-Pro-Arg-AMC as substrate preincubated for 10 mins followed by substrate addition measured after 30 mins by fluorescence based microplate reader assay; details: time 40.0 min
T2 sequence (whole entry): T1 sequence (P43235 whole entry)

[10] = test system: HeLa S3; assay: Cytotoxicity against human HeLa S3 cells assessed as cell viability at 100 uM incubated for 72 hrs by CellTiter-Glo luminescence based assay; assay type: functional; details: read-out: Activity
[11] = Cytotoxicity against human NHDF cells assessed as cell viability at 10 uM incubated for 72 hrs by CellTiter-Glo luminescence based assay; details: read-out: Activity
[12] = test system: HL-60; assay: Cytotoxicity against human HL-60 cells assessed as cell viability at 100 uM incubated for 72 hrs by CellTiter-Glo luminescence based assay; assay type: functional; details: read-out: Activity
[13] = test system: SH-SY5Y; assay: Cytotoxicity against human SH-SY5Y cells assessed as cell viability at 10 uM incubated for 72 hrs by CellTiter-Glo luminescence based assay; assay type: functional; details: read-out: Activity
[14] = test system: HeLa S3; assay: Cytotoxicity against human HeLa S3 cells assessed as cell viability at 10 uM incubated for 72 hrs by CellTiter-Glo luminescence based assay; assay type: functional; details: read-out: Activity
[15] = test system: CCRF-CEM; assay: Cytotoxicity against human CCRF-CEM cells assessed as cell viability at 10 uM incubated for 72 hrs by CellTiter-Glo luminescence based assay; assay type: functional; details: read-out: Activity

| IC50 [3] [µM] | IC50 [5] [µM] | Activity [9] [%] | Structure (SMILES) | viability at 100 µM [1] [%] | viability at 10 µM [2] [%] | viability at 10 µM [4] [%] | viability at 72 h, 100 µM [6] [%] | viability at 100 µM [7] [%] | viability at 100 µM [8] [%] | viability at 100 µM [10] [%] | viability at 72 h, 10 µM [11] [%] | viability at 100 µM [12] [%] | viability at 10 µM [13] [%] | viability at 10 µM [14] [%] | viability at 10 µM [15] [%] |
| --- | --- | --- | --- | --- | --- | --- | --- | --- | --- | --- | --- | --- | --- | --- | --- |
| 6.34 | > 10 | 16.9 | Nc1nc(=O)[nH]s1 | 54 | 98 | 87 | 49 | 4 | 56 | 87 | 101 | 95 | 99 | 100 | 120 |
| 10.1 | > 10 | 39.1 | CCOC(=O)Nc1nc(=O)n(CCOCP(=O)(O)O)s1 | 97 | 96 | 98 | 97 | 77 | 105 | 96 | 94 | 100 | 103 | 94 | 74 |
| 9.25 | > 10 | 34.1 | CC(C)OP(=O)(CO[C@H](CO)Cn1sc(NC(=O)OCC2c3ccccc3-c3ccccc32)nc1=O)OC(C)C | 92 | 103 | 102 | 100 | 82 | 85 | 100 | 98 | 110 | 102 | 99 | 82 |
| 14.9 | > 10 | 34.2 | O=C(/N=c1\s[nH]c(=O)n1C[C@H](O)COC(c1ccccc1)(c1ccccc1)c1ccccc1)c1ccccc1 | 37 | 93 | 91 | 79 | 5 | 34 | 3 | 98 | 9 | 96 | 45 | 81 |
| 10.1 | > 10 | 28.3 | CN(C)/C=N/c1nc(=O)n(C[C@H](O)COC(c2ccccc2)(c2ccccc2)c2ccccc2)s1 | 1 | 64 | 87 | 1 | 1 | 3 | 1 | 77 | 2 | 67 | 80 | 15 |
| 2.63 | > 10 | 5.3 | CN(C)/C=N/c1nc(OC[C@H](O)COC(c2ccccc2)(c2ccccc2)c2ccccc2)ns1 | 1 | 86 | 92 | 1 | 2 | 2 | 2 | 97 | 1 | 99 | 91 | 101 |
